According to patent US20260115249A1, “NEURAL REPAIR COMPOSITION, METHOD OF PREPARATION, AND USE THEREOF” (SHENZHEN JINFENG BIOMEDICAL TECH. CO., LTD., priority 2023, published 2026):

Key:
[1] = system: mice; assay: Forced swim test in LPS-treated mice (improvement of depression); type: in vivo; conditions: forced swim test on Day 6; oral gavage 0.02 mL/10 g daily Days 1-5; LPS 1 mg/kg intraperitoneally Days 3, 4, 5; 10 mice per group
Procedure: (§1) The antidepressant effect of the composition was evaluated through the forced swim test in mice and measurement of oxidative stress levels in the cerebral cortex. Specific procedures were as follows:
(§2) Mice aged 8-9 weeks were selected as test subjects (10 mice per composition group for differential analysis and multiple comparisons; in differential analysis, * denoted p<0.05, ** p<0.01, *** p<0.001). The neural repair compositions prepared in the above examples and comparative examples were administered to mice via oral gavage. A positive control group treated with lipopolysaccharide (LPS) and a blank control group treated with physiological saline were included. From Days 1-5, mice were orally gavaged daily at the same time with 0.02 mL (normalized to body weight)/10 g of the compositions. On Days 3, 4, and 5, LPS (1 mg/kg) was intraperitoneally administered alongside the compositions. The positive control group differed by receiving only LPS (1 mg/kg) on Days 3, 4, and 5, while the blank control group received physiological saline throughout Days 1-5. On Day 6, behavioral tests (immobility time in the forced swim test, in s) and tissue sampling for oxidative stress assessment (reactive oxygen species absorption levels, expressed as absorbance) were conducted. The results are detailed in FIG. *to FIG. 2 and Tables 1-2.

[2] = system: reactive oxygen species; assay: Oxidative stress level (ROS) in the cerebral cortex of LPS-treated mice; type: in vivo; conditions: cerebral cortex sampled Day 6; oral gavage 0.02 mL/10 g daily Days 1-5; LPS 1 mg/kg intraperitoneally Days 3, 4, 5
Procedure: as §1, §2

lipopolysaccharide [LPS]
Immobility time of mice [1]: 230 ± 26 s
ROS absorption level [2]: 0.47 ± 0.10 absorbance
